pIC50: −log10 of the molar value.
Key:
SHP-2 enzyme = target: T1, SHP-2 enzyme (Homo sapiens, UniProt Q06124); assay: Phosphatase activity assay (Homogeneous Full Length SHP-2 Assay Kit, DiFMUP substrate); assay type: biochemical; details: full length SHP-2 activated with 0.5 μM SHP-2 activating Peptide; 1 hour co-incubation; DiFMUP 50 μM, 30 min
T1 construct: Homogeneous Full Length SHP-2 Assay Kit (BPS Bioscience #79330); purchased BPS Bioscience 79330
T1 sequence (Q06124 1-593): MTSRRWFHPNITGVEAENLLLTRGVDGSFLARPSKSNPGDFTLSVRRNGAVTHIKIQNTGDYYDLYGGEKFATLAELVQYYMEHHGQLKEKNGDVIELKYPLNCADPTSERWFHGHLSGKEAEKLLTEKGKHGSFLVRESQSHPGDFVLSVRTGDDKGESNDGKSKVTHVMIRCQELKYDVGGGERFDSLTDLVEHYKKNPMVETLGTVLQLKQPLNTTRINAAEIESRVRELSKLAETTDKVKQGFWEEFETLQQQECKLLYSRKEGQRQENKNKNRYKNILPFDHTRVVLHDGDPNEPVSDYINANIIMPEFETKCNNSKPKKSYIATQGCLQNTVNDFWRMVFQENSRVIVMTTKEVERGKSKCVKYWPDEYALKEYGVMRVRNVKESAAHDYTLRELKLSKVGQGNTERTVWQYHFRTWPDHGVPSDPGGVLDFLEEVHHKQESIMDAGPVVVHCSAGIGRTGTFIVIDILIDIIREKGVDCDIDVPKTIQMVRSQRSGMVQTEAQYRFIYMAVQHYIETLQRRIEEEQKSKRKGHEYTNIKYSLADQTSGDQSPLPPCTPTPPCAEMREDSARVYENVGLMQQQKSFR
Description: IC50 values were assayed using Homogeneous Full Length SHP-2 Assay Kit (BPS Bioscience #79330), which uses 6,8-difluoro-4-methylumbelliferone phosphate (DiFMUP) as the reaction substrate. SHP2 enzyme solution (diluted to 0.04 ng/μL with 1*buffer) was mixed with 0.5 μM SHP-2 activating Peptide in a 1*buffer solution containing 2.5 mM DTT to activate PTP. At the same time, DMSO (0.1% (V/V)) or the compounds (concentration: 0.5 nM to 1 μM) were added, mixed and co-incubated for 1 hour. DiFMUP (50 μM, total reaction system volume of 20 μL) was added, and the reaction was started. After 30 min of incubation, the fluorescence intensity of the reaction system (excitation wavelength: 350 nm, emission wavelength: 460 nm) was measured by Tecan Infinite M1000.

MV-4-11 cell = assay: Cell proliferation assay (Cell Titer-Glo); assay type: cell-based; details: inhibition of MV-4-11 cell proliferation, Cell Titer-Glo on day 4
Description: MV 411 cells (20000 cells/well) were inoculated and cultured in 96 (Corning #3916) well plates, and the medium was 80 μL/well (IMDM with 10% fetal bovine serum (FBS), Gibco #10099-141C). After 24 hours of incubation, 20 μL of the compounds of the present invention configured to different concentrations (DMSO final concentration of 0.1% (V/V)) were added. On day 4, 60 μL of Cell Titer-Glo (Promega #G7558) was added to each well and mixed at 80 rpm, 25° C., 15 min, and the fluorescence values were detected by Victor X5 (PE).

hERG potassium channel = target: T2, hERG potassium channel (Homo sapiens, UniProt Q12809); assay: Inhibition of hERG potassium channel current, manual patch clamp in CHO cells stably expressing hERG; assay type: cell-based; details: whole-cell patch clamp, room temperature
T2 construct: expressed in transfected cells; host or cells: CHO (Chinese hamster ovary) cells stably expressing hERG
T2 sequence (Q12809 whole entry): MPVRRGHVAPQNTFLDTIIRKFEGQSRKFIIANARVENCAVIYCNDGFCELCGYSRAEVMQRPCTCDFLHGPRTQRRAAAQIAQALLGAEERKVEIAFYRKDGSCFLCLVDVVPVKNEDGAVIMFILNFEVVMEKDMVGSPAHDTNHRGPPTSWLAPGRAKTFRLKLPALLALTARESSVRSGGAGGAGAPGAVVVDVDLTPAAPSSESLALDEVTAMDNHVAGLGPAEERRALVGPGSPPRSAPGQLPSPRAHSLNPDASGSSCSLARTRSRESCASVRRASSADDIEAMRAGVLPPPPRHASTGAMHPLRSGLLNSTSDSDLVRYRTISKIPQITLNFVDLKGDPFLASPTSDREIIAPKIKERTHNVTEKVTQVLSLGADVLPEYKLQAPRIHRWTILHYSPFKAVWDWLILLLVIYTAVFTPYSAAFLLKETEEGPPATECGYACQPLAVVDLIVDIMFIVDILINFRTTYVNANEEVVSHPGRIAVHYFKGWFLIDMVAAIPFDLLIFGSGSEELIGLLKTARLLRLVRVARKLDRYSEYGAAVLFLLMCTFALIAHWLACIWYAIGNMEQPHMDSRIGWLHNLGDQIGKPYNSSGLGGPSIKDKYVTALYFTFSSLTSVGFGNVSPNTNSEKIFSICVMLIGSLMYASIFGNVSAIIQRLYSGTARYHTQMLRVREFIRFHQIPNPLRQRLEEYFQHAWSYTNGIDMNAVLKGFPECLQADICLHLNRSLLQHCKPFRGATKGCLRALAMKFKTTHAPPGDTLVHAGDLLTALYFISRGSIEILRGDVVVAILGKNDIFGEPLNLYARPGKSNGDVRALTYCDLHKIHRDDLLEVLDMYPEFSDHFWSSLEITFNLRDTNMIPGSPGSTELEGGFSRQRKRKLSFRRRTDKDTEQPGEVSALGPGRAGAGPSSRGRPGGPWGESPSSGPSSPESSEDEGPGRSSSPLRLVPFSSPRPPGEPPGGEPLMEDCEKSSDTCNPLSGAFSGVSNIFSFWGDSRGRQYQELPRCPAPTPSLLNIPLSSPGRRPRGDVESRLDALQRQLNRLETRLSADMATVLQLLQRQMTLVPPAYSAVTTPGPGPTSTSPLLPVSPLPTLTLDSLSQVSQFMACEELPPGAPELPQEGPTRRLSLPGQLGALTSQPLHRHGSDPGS
Description: The electrophysiological manual patch clamp method was used to test the effect of the compounds on the current of hERG potassium channel (human Ether-a-go-go Related Gene potassium channel).
CHO cells stably expressing hERG were cultured in a cell Petri dish having a diameter of 35 mm, placed in an incubator at 37° C. and with 5% CO2, and passaged every 48 hours at a ratio of 1:5. The culture medium formula was: 90% F12 (Invitrogen), 10% fetal bovine serum (Gibco), 100 μg/mL G418 (Invitrogen), and 100 μg/mL Hygromycin B (Invitrogen). On the day of the test, the cell culture medium was sucked away, and the cells were washed with extracellular fluid once. Then 0.25% Trypsin-EDTA (Invitrogen) solution was added, and the cells was digested at room temperature for 3-5 min. The digestive fluid was sucked away, and the cells were resuspended with extracellular fluid, and transferred to the experimental dish for electrophysiological recording.
On the day of test, the compounds were prepared using DMSO into mother solution with concentration of 20 mM, and then serial dilution with DMSO was performed three times, i.e., 10 μL of the solution was added to 20 μL of DMSO, then 10 μL of the serial diluted solution of the compounds in DMSO was added to 4990 μL of extracellular fluid, and 500 times of dilution was performed to obtain the final concentration to be tested.
The hERG potassium channel currents of CHO (Chinese hamster ovary) cells stably expressing hERG potassium channels were recorded using whole-cell patch clamp technique at room temperature. The glass microelectrodes were made from glass electrode blanks (BF150-86-10, Sutter) by pulling through a puller, and the tip resistance was about 2-5 MΩ after filling the electrode with the inner liquid. The glass microelectrodes could be connected to a patch clamp amplifier by inserting them into the amplifier probe. Clamp voltage and data recording were controlled and recorded by a computer using software pClamp 10 with a sampling frequency of 10 kHz and a filtering frequency of 2 kHz. After obtaining a whole-cell recording, the cell was clamped at −80 mV, and the step voltage inducing hERG potassium current (IhERG) was given a depolarizing voltage from −80 mV to +20 mV for 2 s, and repolarized to −50 mV for 1 s, then returning to −80 mV. This voltage stimulus was given every 10 s. After it is determined that the potassium hERG current was stable (for 1 min), the dosing process was initiated. The compounds were administered for at least 1 min at each tested concentration, and at least 2 cells (n≥2) were tested at each concentration.
Data analysis and processing were conducted using softwares pClamp 10, GraphPad Prism 5, and Excel. The degree of inhibitory activity of different compound concentrations on hERG potassium current (peak value of hERG tail current induced at −50 mV) was calculated using the following formula: Inhibition %=[1−(I/Io)]×100%. Among them, Inhibition % represents the percentage inhibition of the compound on hERG potassium current, and I and Io represent the amplitude of hERG potassium current after and before dosing, respectively.
IC50 of the compounds was calculated using software GraphPad Prism 5 by fitting the following equation: Y=Bottom+(Top−Bottom)/(1+10^(Log IC50−X)*HillSlope). Among them, X is the Log value of the detection concentration of test material, Y is the inhibition percentage at the corresponding concentration, and Bottom and Top are the minimum and maximum inhibition percentages, respectively.

[1] = tested on: human esophageal squamous carcinoma cell line KYSE-520; assay: KYSE-520 subcutaneous transplantation tumor model; assay type: in vivo; details: KYSE-520 subcutaneous tumor, female Balb/C nude mice, 10 mg/kg, PO, QD
Description: The human esophageal squamous carcinoma cell line KYSE-520 was cultured in RPMI 1640 containing 10% fetal bovine serum placed in a 37° C., 5% CO2 sterile incubator. The cells were passaged 2-3 times per week, digested with 0.25% trypsin-EDTA. After terminating the digestion with the above complete medium, the system was centrifugated at 1000 rpm for 5 min. The supernatant was discarded, and the cells were resuspended and passaged at a ratio of 1:3-1:5. Cells in logarithmic phase were collected, resuspended in serum-free RPMI 1640, counted and adjusted to the appropriate density.
KYSE-520 cells (3×10^6 cells/mouse) were inoculated into the right ventral dorsum of approximately 6- to 8-week-old female Balb/C nude mice. Then the tumors grew to an average volume of about 200 mm^3, the tumors were randomly grouped according to the tumor volume and body weight (n=8-10). Administration was started on the day of grouping and was performed once daily, defining the day of grouping as day 0. Tumor diameters were measured twice a week with vernier calipers, and tumor volume was calculated by the formula TV (mm^3)=0.5×a×b^2, with a and b representing the long and short diameters (in mm) of the tumors, respectively. When the average tumor volume of the control group was about 800 mm^3, the experiment was terminated. The tumor tissues were isolated and weighed to calculate the tumor weight proliferation rate with T/Cweight %=TWT/TWC %, and TWT and TWC represent the tumor weight of the administered group and the vehicle control group, respectively.

Row | SMILES | pIC50 (SHP-2 enzyme) | pIC50 (MV-4-11 cell; Homo sapiens, MV4-11, 96 h) | pIC50 (hERG potassium channel) | T/Cweight (tumor weight proliferation rate) [1] | pIC50 (MV-4-11 cell)
1 | Nc1nc(N2CCC3(CC2)Cc2cc(F)ccc2C3N)nnc1C(=O)N1CCCn2nccc21 (stereo not drawn) [Compound 59] | 8.22 | 6.60 | < 4.52 |  | 
2 | Nc1ccc2c(n1)CCN2C(=O)c1ncc(N2CCC3(CC2)Cc2ccccc2C3N)nc1N (stereo not drawn) [Compound 60] | 8.40 | 7.34 |  | 44.62% | 
3 | Nc1nc2c(s1)CN(C(=O)c1ncc(N3CCC4(CC3)Cc3ccccc3[C@H]4N)nc1N)CC2(F)F [Compound 63] | 8.52 | > 8.30 | < 4.52 | 28.94% | 
4 | [2H]C1([2H])CN(C(=O)c2ncc(N3CCC4(CC3)Cc3ccc(OC)cc3C4N)nc2N)Cc2sc(N)nc21 (stereo not drawn) [Compound 70] |  | 7.60 | < 4.52 | 35.04% | 
5 | COc1ccc2c(c1)C(N)C1(CCN(c3cnc(C(=O)N4CCc5nc(N)sc5C4)c(N)n3)CC1)C2 (stereo not drawn) [Compound 82] | 8.40 | 7.60 | < 4.52 |  | 
6 | Cc1nc(C(=O)N2CCc3nc(N)ccc32)c(N)nc1N1CCC2(CC1)Cc1ccc(F)cc1C2N (stereo not drawn) [Compound 107] | 8.05 | 6.92 |  |  | 
7 | [2H]C1([2H])CN(C(=O)c2ncc(N3CCC4(CC3)Cc3ccccc3C4N)nc2N)Cc2sc(N)nc21 (stereo not drawn) [Compound 108] | 8.52 | 8.10 | < 4.52 |  | 
8 | Nc1nc2c(cc1F)N(C(=O)c1ncc(N3CCC4(CC3)Cc3ccccc3C4N)nc1N)CC2 (stereo not drawn) [Compound 109] | 8.52 | 7.24 |  |  | 
9 | Nc1nc2c(s1)CN(C(=O)c1ncc(N3CCC4(CC3)Cc3ccc(C5CC5)cc3C4N)nc1N)CC2 (stereo not drawn) [Compound 110] | 8.05 | 7.68 |  |  | 
10 | Cc1nc(N2CCC3(CC2)Cc2ccccc2C3N)c(CO)nc1C(=O)N1Cc2sc(N)nc2C(F)(F)C1 (stereo not drawn) [Compound 112] | 7.85 | 7.74 |  |  | 
11 | Cc1ccc2c(c1)C(N)C1(CCN(c3ncc(C(=O)N4Cc5sc(N)nc5C(F)(F)C4)nc3CO)CC1)C2 (stereo not drawn) [Compound 113] | 8.22 | > 8.30 |  |  | 
12 | Nc1nc2c(s1)CN(C(=O)c1nc(F)c(N3CCC4(CC3)Cc3ccccc3C4N)nc1N)CC2(F)F (stereo not drawn) [Compound 115] | 8.40 | 8.40 |  |  | 
13 | Nc1nc2c(s1)CN(C(=O)c1ncc(N3CCC4(CC3)Cc3ccc(F)cc3C4N)nc1N)CC2(F)F (stereo not drawn) [Compound 116] | 8.30 | 8.22 |  |  | 
14 | NC(=O)c1nc(C(=O)N2Cc3sc(N)nc3C(F)(F)C2)cnc1N1CCC2(CC1)Cc1ccccc1C2N (stereo not drawn) [Compound 117] | 7.96 | 7.41 |  |  | 
15 | Nc1nc2c(s1)CN(C(=O)c1cnc(N3CCC4(CC3)Cc3ccc(F)cc3C4N)c(CO)n1)CC2(F)F (stereo not drawn) [Compound 118] | 8.22 | 8.30 |  |  | 
16 | COc1ccc2c(c1)C(N)C1(CCN(c3ncc(C(=O)N4Cc5sc(N)nc5C(F)(F)C4)nc3CO)CC1)C2 (stereo not drawn) [Compound 119] | 8.15 | 8.30 |  |  | 
17 | [2H]C1([2H])CN(C(=O)c2ncc(N3CCC4(CC3)Cc3ccc(OC)cc3C4N)nc2N)Cc2sc(N)nc21 (stereo not drawn) [Compound 122] | 8.10 |  |  |  | 7.60
18 | COc1ccc2c(c1)C(N)C1(CCN(c3cnc(C(=O)N4Cc5sc(N)nc5C(F)(F)C4)c(N)n3)CC1)C2 (stereo not drawn) [Compound 125] | 8.00 |  | < 4.52 |  | 
19 | Nc1nc2c(s1)CN(C(=O)c1cnc(N3CCC4(CC3)Cc3ccccc3C4N)c(CO)n1)CC2(F)F (stereo not drawn) [Compound 126] | 8.22 |  | < 4.52 |  | 
20 | Nc1nc2c(s1)CN(C(=O)c1ncc(N3CCC4(CC3)Cc3ccccc3C4N)nc1N)CC2(F)F (stereo not drawn) [Compound 127] | 8.15 | 7.89 |  |  | 
21 | Nc1nc2c(s1)CN(C(=O)c1ncc(N3CCC4(CC3)Cc3cc(F)ccc3C4N)nc1N)CC2(F)F (stereo not drawn) [Compound 129] | 8.30 |  |  |  | 8.05
22 | N[C@@H]1c2ccccc2CC12CCN(c1cnc(C(=O)N3CCCc4ncccc43)cn1)CC2 [Compound D1, reference compound] | 7.43 | 6.07 |  |  | 
